# Earlier results in patent US20060281715A1, “Phosphates of secondary alcohols” (priority 2003, published 2006).
# Tests used:
# [1] = major metabolite
# seratonin uptake = details: enantiomers of venlafaxine
# noradrenaline uptake = details: enantiomers of venlafaxine
# [2] = oral administration
smiles,measurement,setting,value
CN(C)CC(c1ccc(O)cc1)C1(O)CCCCC1 (stereo not drawn) [O-desmethylvenlafaxine],potency compared with venlafaxine,[1],equally potent
same,half-life,calculated,11 h
"COc1ccc(C(CN(C)C)C2(O)CCCCC2)cc1 (single isomer, unassigned) [S-enantiomer]","potency as inhibitor of seratonin uptake, compared with other enantiomer",seratonin uptake,more potent
COc1ccc(C(CN(C)C)C2(O)CCCCC2)cc1 (stereo not drawn) [Venlafaxine],time to mean peak plasma concentrations,following single 25 to 150 mg doses,approximately 2.4 hours
"COc1ccc(C(CN(C)C)C2(O)CCCCC2)cc1 (single isomer, unassigned) [R-enantiomer]","potency as inhibitor of noradrenaline uptake, compared with other enantiomer",noradrenaline uptake,more potent
CC[C@H](C)C(=O)O[C@H]1C[C@H](O)C=C2C=C[C@H](C)[C@H](CC[C@@H](O)C[C@@H](O)CC(=O)O)[C@H]21 [Pravastatin],time to peak plasma levels,[2],about an hour and a half
